Assay results from PubChem BioAssay (NCI).
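Five compound concentrations were applied to cells in 96-well plates for 48 hours; endpoints were derived by simple linear interpolation of the resulting dose-response curve. GI50: concentration for 50% inhibition of growth. TGI denotes the concentration required for complete inhibition of growth.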

Tests used:
Assay in all cases: NCI anticancer screen, dose series, 48 h
[1] = tested on: ACHN renal
[2] = tested on: DLD-1 colon
[3] = tested on: HCT-15 colon
[4] = tested on: NCI-H226 lung
[5] = tested on: M19-MEL melanoma
[6] = tested on: SW-620 colon
[7] = tested on: XF 498 CNS
[8] = tested on: SF-539 CNS
[9] = tested on: NCI-H23 lung
[10] = tested on: RXF-631 renal
[11] = tested on: HL-60(TB) leukemia
[12] = tested on: IGROV1 ovarian
[13] = tested on: SNB-75 CNS
[14] = tested on: A498 renal
[15] = tested on: OVCAR-3 ovarian
[16] = tested on: SK-MEL-5 melanoma
[17] = tested on: RXF 393 renal
[18] = tested on: DMS 273 small cell lung
[19] = tested on: SK-MEL-2 melanoma
[20] = tested on: A549 NSCLC
[21] = tested on: HCT-116 colon
[22] = tested on: U251 CNS
[23] = tested on: HT29 colon
[24] = tested on: MOLT-4 leukemia
[25] = tested on: M14 melanoma
[26] = tested on: KM20L2 colon
[27] = tested on: HOP-18 NSCLC
[28] = tested on: SK-MEL-28 melanoma
[29] = tested on: HCC-2998 colon
[30] = tested on: RPMI-8226 leukemia
[31] = tested on: TK-10 renal
[32] = tested on: SF-268 CNS
[33] = tested on: LXFL 529 NSCLC
[34] = tested on: K-562 leukemia
[35] = tested on: SNB-19 CNS
[36] = tested on: CAKI-1 renal
[37] = tested on: UACC-257 melanoma
[38] = tested on: NCI-H460 lung
[39] = tested on: HOP-92 NSCLC
[40] = tested on: KM12 colon
[41] = tested on: UACC-62 melanoma
[42] = tested on: COLO 205 colon
[43] = tested on: LOX IMVI melanoma
[44] = tested on: OVCAR-4 ovarian
[45] = tested on: MALME-3M melanoma
[46] = tested on: SK-OV-3 ovarian
[47] = tested on: 786-0 renal
[48] = tested on: DMS 114 small cell lung
[49] = tested on: SNB-78 CNS
[50] = tested on: CCRF-CEM leukemia
[51] = tested on: UO-31 renal
[52] = tested on: SF-295 CNS
[53] = tested on: NCI-H522 lung
[54] = tested on: SN12C renal
[55] = tested on: OVCAR-5 ovarian
[56] = tested on: HOP-62 NSCLC
[57] = tested on: EKVX NSCLC
[58] = tested on: OVCAR-8 ovarian
[59] = tested on: SR leukemia

Work on `C[C@]12CC[C@H](OC(=O)Cc3ccc(N(CCCl)CCCl)cc3)CC1CC[C@@H]1C2CC[C@]2(C)NC(=O)CCC12` (stereo partly specified) yielded a TGI [1] of 27.7 µM, a TGI [2] of 32.4 µM and a TGI [3] of 30.6 µM. It also gave a TGI [4] of 69.6 µM, a TGI [5] of 28.8 µM and a TGI [6] of 24.7 µM. For the same compound, the TGI [7] was 28.3 µM, the TGI [8] was 12.5 µM and the TGI [9] was 35.4 µM. It also gave a TGI [10] of 34.1 µM, a TGI [11] of 6.06 µM and a TGI [12] of 30.5 µM. It also gave a TGI [13] of 27.4 µM, a TGI [14] of 43.5 µM and a TGI [15] of 14.8 µM. It also gave a TGI [16] of 32.5 µM, a TGI [17] of 24.3 µM and a TGI [18] of 20.5 µM. It also gave a TGI [19] of 48.7 µM, a TGI [20] of 37.5 µM and a TGI [21] of 18.5 µM. For the same compound, the TGI [22] was 29.3 µM, the TGI [23] was 3.79 µM and the TGI [24] was 15.6 µM. It also gave a TGI [25] of 28.8 µM, a TGI [26] of 23.7 µM and a TGI [27] of 31.4 µM. The TGI [28] was 31.9 µM, the TGI [29] was 34.8 µM and the TGI [30] was 23 µM. For the same compound, the TGI [31] was 44.4 µM, the TGI [32] was 33 µM and the TGI [33] was 25 µM. For the same compound, the TGI [34] was 24.8 µM, the TGI [35] was > 100 µM and the TGI [36] was 15.3 µM. The TGI [37] was 27 µM, the TGI [38] was 35.1 µM and the TGI [39] was 35.6 µM. It also gave a TGI [40] of 25.5 µM, a TGI [41] of 21.4 µM and a TGI [42] of 18.4 µM. The TGI [43] was 27.2 µM, the TGI [44] was 28.9 µM and the TGI [45] was 35.7 µM. The TGI [46] was 33.8 µM, the TGI [47] was 29 µM and the TGI [48] was 21.9 µM. The TGI [49] was 39.3 µM, the TGI [50] was 18 µM and the TGI [51] was > 100 µM. For the same compound, the TGI [52] was 25.2 µM, the TGI [53] was 25.4 µM and the TGI [54] was 18.6 µM.

`COc1cccc(-c2cc(=O)c3cc(C)c(C)c(C(=O)O)c3o2)c1` was tested, and the TGI [1] was > 100 µM, the TGI [2] was > 100 µM and the TGI [3] was > 100 µM. The TGI [5] was > 100 µM, the TGI [6] was > 100 µM and the TGI [7] was > 100 µM. For the same compound, the TGI [8] was > 100 µM, the TGI [9] was > 100 µM and the TGI [10] was > 100 µM. For the same compound, the TGI [11] was > 100 µM, the TGI [12] was > 100 µM and the TGI [13] was 92.7 µM. For the same compound, the TGI [14] was > 100 µM, the TGI [15] was > 100 µM and the TGI [16] was > 100 µM. The TGI [18] was > 100 µM, the TGI [19] was > 100 µM and the TGI [20] was > 100 µM. The TGI [21] was > 100 µM, the TGI [22] was > 100 µM and the TGI [23] was > 100 µM. For the same compound, the TGI [24] was > 100 µM, the TGI [25] was > 100 µM and the TGI [26] was > 100 µM. The TGI [28] was > 100 µM, the TGI [55] was > 100 µM and the TGI [29] was > 100 µM. The TGI [30] was > 100 µM, the TGI [31] was > 100 µM and the TGI [32] was > 100 µM. The TGI [56] was > 100 µM, the TGI [57] was > 100 µM and the TGI [33] was > 100 µM. For the same compound, the TGI [34] was > 100 µM, the TGI [35] was > 100 µM and the TGI [37] was > 100 µM. The TGI [38] was > 100 µM, the TGI [39] was > 100 µM and the TGI [40] was > 100 µM. For the same compound, the TGI [41] was > 100 µM, the TGI [42] was > 100 µM and the TGI [43] was > 100 µM. The TGI [44] was > 100 µM, the TGI [45] was > 100 µM and the TGI [58] was > 100 µM. For the same compound, the TGI [46] was > 100 µM, the TGI [47] was > 100 µM and the TGI [48] was > 100 µM. For the same compound, the TGI [49] was > 100 µM, the TGI [50] was > 100 µM and the TGI [51] was > 100 µM. For the same compound, the TGI [52] was > 100 µM, the TGI [53] was > 100 µM and the TGI [54] was > 100 µM.

For `N#CC1=C(c2ccccc2)NN(Cc2ccccc2)C(c2ccc(Cl)cc2)CC1=O` (stereo unspecified), the TGI [1] was > 100 µM, the TGI [2] was 49.1 µM and the TGI [3] was 90.6 µM. For the same compound, the TGI [4] was > 100 µM, the TGI [6] was 54.8 µM and the TGI [59] was > 100 µM. For the same compound, the TGI [7] was 50.1 µM, the TGI [9] was > 100 µM and the TGI [10] was 85.3 µM. The TGI [11] was 84.6 µM, the TGI [13] was 46 µM and the TGI [14] was > 100 µM. The TGI [16] was > 100 µM, the TGI [17] was 98.2 µM and the TGI [18] was 52.8 µM. The TGI [19] was > 100 µM, the TGI [20] was 62.3 µM and the TGI [21] was 48.5 µM. The TGI [22] was 38.2 µM, the TGI [23] was 38.7 µM and the TGI [24] was > 100 µM. The TGI [26] was 75.8 µM, the TGI [27] was 73.5 µM and the TGI [28] was > 100 µM. The TGI [55] was > 100 µM, the TGI [30] was 64.8 µM and the TGI [31] was > 100 µM. For the same compound, the TGI [32] was > 100 µM, the TGI [33] was > 100 µM and the TGI [35] was 72.8 µM. The TGI [36] was 76.7 µM, the TGI [37] was > 100 µM and the TGI [38] was 52.9 µM. For the same compound, the TGI [39] was 45.1 µM, the TGI [40] was 82.1 µM and the TGI [42] was > 100 µM. The TGI [43] was 41.8 µM, the TGI [44] was 75.9 µM and the TGI [47] was 98.4 µM. The TGI [48] was > 100 µM, the TGI [49] was > 100 µM and the TGI [50] was > 100 µM. For the same compound, the TGI [52] was > 100 µM and the TGI [53] was 38.5 µM.

For `CN(C)C=O.CN(C)C=O.CN1C(C(=O)Nc2ccccn2)=C([O-])c2ccccc2S1(=O)=O.CN1C(C(=O)Nc2ccccn2)=C([O-])c2ccccc2S1(=O)=O.[Cu+2]`, the TGI [1] was > 100 µM, the TGI [3] was > 100 µM and the GI50 [5] was 31 µM. The TGI [5] was > 100 µM, the TGI [6] was > 100 µM and the TGI [59] was > 100 µM. The GI50 [7] was 18.8 µM, the TGI [7] was 34.4 µM and the TGI [8] was > 100 µM. The TGI [9] was 57 µM, the GI50 [10] was 87.4 µM and the TGI [10] was > 100 µM. The TGI [11] was > 100 µM, the GI50 [12] was 36.3 µM and the TGI [12] was > 100 µM. For the same compound, the TGI [13] was 49.5 µM, the GI50 [14] was 24.2 µM and the TGI [14] was 65.3 µM. For the same compound, the TGI [15] was > 100 µM, the TGI [16] was 36.8 µM and the TGI [17] was 61.7 µM. The GI50 [18] was 35.9 µM, the TGI [18] was > 100 µM and the TGI [19] was > 100 µM. For the same compound, the TGI [20] was > 100 µM, the TGI [21] was > 100 µM and the TGI [22] was > 100 µM. For the same compound, the TGI [23] was > 100 µM, the TGI [25] was > 100 µM and the GI50 [26] was > 100 µM. The TGI [26] was > 100 µM, the GI50 [27] was > 100 µM and the TGI [27] was > 100 µM. For the same compound, the TGI [28] was > 100 µM, the TGI [55] was > 100 µM and the GI50 [29] was > 100 µM. The TGI [29] was > 100 µM, the TGI [30] was > 100 µM and the TGI [31] was > 100 µM. For the same compound, the TGI [32] was > 100 µM, the TGI [56] was 78.8 µM and the TGI [57] was > 100 µM. For the same compound, the GI50 [33] was 27.8 µM, the TGI [33] was > 100 µM and the GI50 [34] was > 100 µM. For the same compound, the TGI [34] was > 100 µM, the TGI [35] was 41.2 µM and the TGI [37] was > 100 µM. The GI50 [38] was 32.5 µM, the TGI [38] was > 100 µM and the GI50 [39] was 22.1 µM. For the same compound, the TGI [39] was 51.1 µM, the TGI [40] was > 100 µM and the TGI [41] was 41.2 µM. The TGI [42] was > 100 µM, the TGI [43] was > 100 µM and the TGI [44] was 78.7 µM. For the same compound, the TGI [45] was > 100 µM, the TGI [58] was > 100 µM and the TGI [46] was 45.8 µM. The TGI [47] was > 100 µM, the GI50 [48] was 32.2 µM and the TGI [48] was > 100 µM. The GI50 [49] was 64.3 µM, the TGI [49] was > 100 µM and the TGI [51] was > 100 µM. For the same compound, the TGI [52] was > 100 µM, the TGI [53] was > 100 µM and the TGI [54] was > 100 µM.
